Results from patent US20220241223A1, “USE OF DISULFIRAM OR ITS DERIVATIVES FOR THE TREATMENT OF MITOCHONDRIAL DISEASES OR DYSFUNCTION” (Universite D'angers, priority 2019, published 2022).

How the values were obtained:
[1] = system: mitochondrial complex I respiration in MELAS neuronal cybrid cells; experiment: Complex I linked respiration in permeabilized MELAS cybrid cells (Oroboros oxygraph); type: cell-based, human; details: 48 h exposure, low glucose medium (0.5 g/l)
Protocol: FIG. 6: Effect of DSF on mitochondrial complex I respiration in MELAS neuronal cybrid cells after 48 h exposure in low glucose medium (0.5 g/l).
FIG. 7: Effect of DSF at 10 nM after 48 h exposure on mitochondrial complex I (left) and complex IV (right) respiration in permeabilized MELAS neuronal cybrid cells, in low glucose medium (0.5 g/l).
Cellular oxygen consumption was measured at 37° C. in MELAS cybrid cells treated vs untreated mutant cells on a high-resolution oxygraph (Oroboros), as described elsewhere (Desquiret-Dumas et al., 2012).
Briefly treated and untreated mutant cells were trypsinized and the pellet was resuspended in the respiratory buffer (KH2PO4 10 mM, mannitol 300 mM, KCl 10 mM, MgCl2 5 mM, pH 7.4) containing 15 μg/million cells of digitonin. Cells were incubated at room temperature during 2.5 minutes and the digitonin action was stopped by adding five volumes of the respiration buffer supplemented with 1 mg/ml of BSA. […] The oxygen consumption was measured in state II (5 mM malate+pyruvate), state III (5 mM malate+pyruvate+1.5 mM ADP+0.5 mM NAD or 5 mM succinate+10 μM rotenone+1.5 mM ADP+0.5 mM NAD), state IV (8 μg/ml oligomycin) and maximal cytochrome c oxidase capacity (4 mM ascorbate+0.2 mM TMPD). After oxygraphic measurement, […] of cell suspension was removed from the chamber and the protein concentration was measured using bicinchoninic acid.

[2] = system: normal cells or intact mitochondria; details: very high concentrations (above 25 μM); Gill, Mali, Kuroda, Hassinen; cited from earlier work
control cybrids (JCP213) = experiment: Control cybrid growth in glucose-deprived medium; type: cell-based, human; details: same range of concentration
Protocol: The cybrid cell lines JCP213 (WT control) and JCP239 (NARP T8993G, Manfredi G et al.) were grown in high glucose (4.5 g/L final concentration) DMEM (supplemented with fetal bovine serum—FBS—at 5% final concentration, sodium pyruvate at 1 mM final concentration, L-glutamine at 4 mM final concentration and uridine at 200 μM final concentration) and then shifted in the same DMEM-based medium except that it is deprived of glucose to encourage the cells to rely on OXPHOS (OXidative PHOSphorylation) rather than glycolysis, supplemented with: • various concentrations of DSF; or • as control, with equivalent quantity of DMSO (compound vehicle, negative control); or • with 150 μM dihydrolipoic acid (DHLA, positive control, as in previous studies (Couplan E et al. & Aiyar R S et al.). All the cells were grown at 37° C. in presence of 5% CO2.

[3] = system: mitochondrial complex I in MELAS neuronal cybrid cells; experiment: Complex I enzyme activity in MELAS cybrid cells; type: cell-based, human; details: FIG. 5; various concentrations, especially from 30 to 90 nM; 48 h exposure; low glucose medium (0.5 g/l)
Protocol: FIG. 5: Effect of DSF compared to untreated mutant cells (DMSO vehicle) after 48 h exposure on complex I enzyme activity in MELAS neuronal cybrid cells in low glucose medium (0.5 g/l).
The SH-SY5Y neuronal mutant cybrid cells, carrying the m.3243A>G with 98.6% mutant load responsible for MELAS syndrome, were cultured in standard DMEM high glucose media (4.5 g/L) or in low glucose (0.5 g/L), supplemented with 10% fetal bovine serum, 1% glutamine and 50 μg/ml uridine at 37° C. in presence of 5% CO2 as described elsewhere (Desquiret-Dumas et al. & Geffroy et al.). To optimize drug concentrations, cells were shifted to low glucose-medium 0.5 g/l (to force the cells to rely on OXPHOS rather than glycolysis) supplemented with various concentrations of DSF or of the vehicle (DMSO).
Complex I enzyme activity was measured at 37° C. on an UVmc2 spectrophotometer (SAFAS) as described (Desquiret-Dumas et al., 2012). For complex I enzyme activity, 0.5 million of cells were sonicated (6 cycles of 5 seconds) then incubated at 37° C. in the reaction medium (KH2PO4 100 mM, pH 7.4, KCN 1 mM, NaN3 2 mM, BSA 1 mg/ml, ubiquinone-1 0.1 mM and DCPIP 0.075 mM). The reaction was started by adding 0.15 mM NADH and the disappearing rate of DCPIP was measured at 600 nm for 2 minutes. The unspecific activity was determined in the presence of rotenone (5 μM).

Structure (SMILES): CCN(CC)C(=S)SSC(=S)N(CC)CC [DSF, 1-(diethylthiocarbamoyldisulfanyl)-N,N-diethyl-methanethioamide]
- effect on complex I linked respiration ([1]; FIG. 6, various concentrations): increases complex I linked respiration
- effect on complex I linked respiration ([1]; FIG. 7, 10 nM, permeabilized cells): increases mitochondrial complex I
- effect on mitochondrial function [2]: affect mitochondrial function
- effect on growth of control cybrids (control cybrids (JCP213)): no effect
- effect on complex I activity [3]: increases complex I activity
